Data as given in patent US9187458B2, “Cyanoquinoline derivatives” (Tianjin Hemay Bio-Tech Co., LTD., priority 2010, dated 2015).

Experiments:
A431 cells = assay: A431 Cell Growth Inhibition Test (MTT Assay); format: cell-based, human; details: for IC50 / inhibition at 1 µM: Homo sapiens; for IC50: A-431, 68 h incubation; for inhibition at 1 µM: A-431, 68 h, read-out: Growth Inhibition Ratio (%); for inhibition at 1 µM / Growth Inhibition Ratio (%): compound 1 μM, 68 h incubation
In short: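 Cells seeded at 2500/well in DMEM/F12 with 10% FBS, grown overnight, then exposed to compound for 68 h at 37 °C, 5% CO2. Viability by MTT (0.5 mg/ml, 4 h), DMSO-solubilised, OD 490 nm; IC50 is concentration giving 50% growth inhibition relative to controls.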

A549 cells = assay: A549 Cell Growth Inhibition Test (MTT Assay); format: cell-based; details: Homo sapiens, 72 h incubation
Experimental: A549 Cell Growth Inhibition Test (MTT Assay)
1. Cell strains: […] (human lung caner cell strains);
Culture medium: 90% F12K+10% FBS;
(§1) 1. A plate (10 cm) of cells in logarithmic growth phase normally cultured was collected;
2. The culture solution was sucked out. Tthe plate was washed with 5 ml of PBS 1-2 times;
3. PBS was sucked out. 2 ml of 0.25% pancreatin was added to infiltrate the cells for 1 min;
4. The pancreatin was sucked out. The culture plate was placed in an incubator. Digestion was carried out for about 2 min at 37° C.;
(§2) 5. 4 ml of complete culture solution was added to the culture plate to stop the digestion. The cells were carefully scoured with micropipette (1 ml) to give a uniform cell suspension. The suspension was implanted into a 96-well cell culture plate by 2500 cells/100 μl per well. The culture plate was incubated overnight under 5% CO2 at 37° C. In day 2, 100 μl of culture solution comprising a compound was added in each well, and further incubated for 72 h under 5% CO2 at 37° C.
(§3) 6. The culture solution was sucked out;
(§4) 7. 100 μl of serum-free culture solution containing 0.5 mg/ml MTT was added in each well, and incubated for 3 h;
(§5) 8. The culture solution was carefully sucked out;
9. 100 μl of DMSO was added in each well and vibrated to dissolve;
(§6) 10. OD values were determined at 490 nM.
1. Calculation of Relative Inhibition Ratio The inhibition ratio of a compound on cell growth=(PC−n)/(PC−NC)×100%
(§7) IC50: Concentration of a compound where inhibition ratio was 50%. IC50 values were fitted with Origin7.5.

NCI-N87 cells = assay: NCI-N87 Cell Growth Inhibition Test (MTT Assay); format: cell-based; details: Homo sapiens, 72 h incubation
Experimental: NCI-N87 Cell Growth Inhibition Test (MTT Assay)
1. Cell strains: NCI-N87 (human gastric carcinoma cell strains);
as §1
2. The culture solution was sucked out. The plate was washed wtih 5 ml of PBS 1-2 times;
3. PBS was sucked out. 1.5 ml of 0.25% pancreatin was added to infiltrate the cells for 1 min;
4. The pancreatin was sucked out. The culture plate was placed in an incubator. Digestion was carried out for about 12 min at 37° C.;
as §2, with “5. 4.5 ml of” for “5. 4 ml of”, “cell culture disc by 17000” for “cell culture plate by 2500”, “disc by 17000 cells/100 μl” for “plate by 2500 cells/100 μl”
as §3, §4, §5
9. 100 μl of DMSO was added in each welland vibrated to dissolve;
as §6
1. Calculation of Rrelative Inhibition Ratio The inhibition ratio of a compound on cell growth=(PC−n)/(PC−NC)×100%
as §7

CC(C)(C)NC/C=C/C(=O)Nc1cc2c(Nc3ccc(OCc4ccccn4)c(Cl)c3)c(C#N)cnc2cc1O[C@H]1CCOC1 [Example 153, (S,E)-N-(4-(3-CHLORO-4-(PYRIDIN-2-YL-METHOXY)PHENYLAMINO)-3-CYANO-7-(TETRAHYDROFURAN-3-YL-OXY)QUINOLIN-6-YL)-4-(TERT-BUTYLAMINO)-BUT-2-ENAMIDE]
IC50 (A431 cells): 53 nM | IC50 (A549 cells): 6400 nM | IC50 (NCI-N87 cells): 15 nM

C#Cc1cccc(Nc2c(C#N)cnc3cc(O[C@H]4CCOC4)c(NC(=O)/C=C/CN(C)C)cc23)c1 [Example 140, (S,E)-N-(3-CYANO-4-(3-ETHYNYLPHENYLAMINO)-7-(TETRAHYDROFURAN-3-YL-OXY)QUINOLIN-6-YL)-4-(DIMETHYLAMINO)-BUT-2-ENAMIDE]
inhibition at 1 µM (A431 cells): 87% | IC50 (A431 cells): 26 nM | IC50 (A549 cells): 1600 nM | IC50 (NCI-N87 cells): 15 nM

CN(C)C/C=C/C(=O)Nc1cc2c(Nc3ccc(OCc4ccccc4Cl)c(Cl)c3)c(C#N)cnc2cc1OC1CCOC1 (stereo not drawn) [Example 10, (E)-N-(4-(4-(2-CHLOROBENZYLOXY)-3-CHLOROPHENYLAMINO)-3-CYANO-7-(TETRAHYDROFURAN-3-YL-OXY)QUINOLIN-6-YL)-4-(DIMETHYLAMINO)-BUT-2-ENAMIDE]
IC50 (A431 cells): 222 nM | IC50 (A549 cells): 2300 nM | IC50 (NCI-N87 cells): 11 nM

CN(C)C/C=C/C(=O)Nc1cc2c(Nc3ccc(OCc4ccccn4)c(Cl)c3)c(C#N)cnc2cc1O[C@H]1CCOC1 [Example 138, (S,E)-N-(4-(3-CHLORO-4-(PYRIDIN-2-YL-METHOXY)PHENYLAMINO)-3-CYANO-7-(TETRAHYDROFURAN-3-YL-OXY)QUINOLIN-6-YL)-4-(DIMETHYLAMINO)-BUT-2-ENAMIDE]
inhibition at 1 µM (A431 cells): 89% | IC50 (A431 cells): 62 nM | IC50 (A549 cells): 1500 nM | IC50 (NCI-N87 cells): 4.4 nM

CN(C)C/C=C/C(=O)Nc1cc2c(Nc3ccc(OCc4ccccc4F)c(Cl)c3)c(C#N)cnc2cc1OC1CCOC1 (stereo not drawn) [Example 8, (E)-N-(4-(4-(2-FLUOROBENZYLOXY)-3-CHLOROPHENYLAMINO)-3-CYANO-7-(TETRAHYDROFURAN-3-YL-OXY)QUINOLIN-6-YL)-4-(DIMETHYLAMINO)-BUT-2-ENAMIDE]
inhibition at 1 µM (A431 cells): 91% | IC50 (A431 cells): 145 nM | IC50 (A549 cells): 1700 nM | IC50 (NCI-N87 cells): 5.6 nM

C#Cc1cccc(Nc2c(C#N)cnc3cc(O[C@H]4CCOC4)c(NC(=O)/C=C/CN4CCOCC4)cc23)c1 [Example 145, (S,E)-N-(3-CYANO-4-(3-ETHYNYLPHENYLAMINO)-7-(TETRAHYDROFURAN-3-YL-OXY)QUINOLIN-6-YL)-4-(MORPHOLIN-4-YL)-BUT-2-ENAMIDE]
IC50 (A431 cells): 71 nM | IC50 (A549 cells): 6700 nM | IC50 (NCI-N87 cells): 346 nM

CN(C)C/C=C/C(=O)Nc1cc2c(Nc3ccc(OCc4ccccc4)c(Cl)c3)c(C#N)cnc2cc1OC1CCOC1 (stereo not drawn) [Example 12, (E)-N-(4-(4-(BENZYLOXY)-3-CHLOROPHENYLAMINO)-3-CYANO-7-(TETRAHYDROFURAN-3-YL-OXY)QUINOLIN-6-YL)-4-(DIMETHYLAMINO)-BUT-2-ENAMIDE]
IC50 (A431 cells): 147 nM | IC50 (A549 cells): 2000 nM | IC50 (NCI-N87 cells): 6.1 nM

CN(C)C/C=C/C(=O)Nc1cc2c(Nc3ccc(OCc4ccccn4)c(Cl)c3)c(C#N)cnc2cc1O[C@@H]1CCOC1 [Example 139, (R,E)-N-(4-(3-CHLORO-4-(PYRIDIN-2-YL-METHOXY)PHENYLAMINO)-3-CYANO-7-(TETRAHYDROFURAN-3-YL-OXY)QUINOLIN-6-YL)-4-(DIMETHYLAMINO)-BUT-2-ENAMIDE]
inhibition at 1 µM (A431 cells): 90% | IC50 (A431 cells): 93 nM | IC50 (A549 cells): 600 nM | IC50 (NCI-N87 cells): 7.2 nM

N#Cc1cnc2cc(O[C@H]3CCOC3)c(NC(=O)/C=C/CN3CCCCC3)cc2c1Nc1ccc(OCc2ccccn2)c(Cl)c1 [Example 151, (S,E)-N-(4-(3-CHLORO-4-(PYRIDIN-2-YL-METHOXY)PHENYLAMINO)-3-CYANO-7-(TETRAHYDROFURAN-3-YL-OXY)QUINOLIN-6-YL)-4-(PIPERIDIN-1-YL)-BUT-2-ENAMIDE]
IC50 (A431 cells): 61 nM | IC50 (A549 cells): 3700 nM | IC50 (NCI-N87 cells): 16 nM

CN(C)C/C=C/C(=O)Nc1cc2c(Nc3cccc(Br)c3)c(C#N)cnc2cc1OC1CCOC1 (stereo not drawn) [Example 7, (E)-N-(4-(3-BROMOPHENYLAMINO)-3-CYANO-7-(TETRAHYDROFURAN-3-YL-OXY)QUINOLIN-6-YL)-4-(DIMETHYLAMINO)-BUT-2-ENAMIDE]
IC50 (A431 cells): 160 nM | IC50 (A549 cells): 3000 nM | IC50 (NCI-N87 cells): 113 nM

Cc1ccccc1COc1ccc(Nc2c(C#N)cnc3cc(OC4CCOC4)c(NC(=O)/C=C/CN(C)C)cc23)cc1Cl (stereo not drawn) [Example 17, (E)-N-(4-(4-(2-METHYLBENZYLOXY)-3-CHLOROPHENYLAMINO)-3-CYANO-7-(TETRAHYDROFURAN-3-YL-OXY)QUINOLIN-6-YL)-4-(DIMETHYLAMINO)-BUT-2-ENAMIDE]
IC50 (A431 cells): 194 nM | IC50 (A549 cells): 2400 nM | IC50 (NCI-N87 cells): 21 nM

CN(C)C/C=C/C(=O)Nc1cc2c(Nc3ccc(F)c(Cl)c3)c(C#N)cnc2cc1O[C@H]1CCOC1 [Example 142, (S,E)-N-(4-(3-CHLORO-4-FLUOROPHENYLAMINO)-3-CYANO-7-(TETRAHYDROFURAN-3-YL-OXY)QUINOLIN-6-YL)-4-(DIMETHYLAMINO)-BUT-2-ENAMIDE]
inhibition at 1 µM (A431 cells): 75% | IC50 (A431 cells): 45 nM | IC50 (A549 cells): 1500 nM | IC50 (NCI-N87 cells): 75 nM

CN(C)C/C=C/C(=O)Nc1cc2c(Nc3ccc(OCc4ccc(Cl)cc4)c(Cl)c3)c(C#N)cnc2cc1OC1CCOC1 (stereo not drawn) [Example 16, (E)-N-(4-(4-(4-CHLOROBENZYLOXY)-3-CHLOROPHENYLAMINO)-3-CYANO-7-(TETRAHYDROFURAN-3-YL-OXY)QUINOLIN-6-YL)-4-(DIMETHYLAMINO)-BUT-2-ENAMIDE]
IC50 (A431 cells): 358 nM | IC50 (A549 cells): 3400 nM | IC50 (NCI-N87 cells): 26 nM

C#Cc1cccc(Nc2c(C#N)cnc3cc(O[C@H]4CCOC4)c(NC(=O)/C=C/CN(C)Cc4ccccc4)cc23)c1 [Example 149, (S,E)-N-(3-CYANO-4-(3-ETHYNYLPHENYLAMINO)-7-(TETRAHYDROFURAN-3-YL-OXY)QUINOLIN-6-YL)-4-(N-METHYLBENZYLAMINO)-BUT-2-ENAMIDE]
IC50 (A431 cells): 89 nM | IC50 (NCI-N87 cells): 111 nM

N#Cc1cnc2cc(O[C@H]3CCOC3)c(NC(=O)/C=C/CN3CCOCC3)cc2c1Nc1ccc(OCc2ccccn2)c(Cl)c1 [Example 152, (S,E)-N-(4-(3-CHLORO-4-(PYRIDIN-2-YL-METHOXY)PHENYLAMINO)-3-CYANO-7-(TETRAHYDROFURAN-3-YL-OXY)QUINOLIN-6-YL)-4-(MORPHOLIN-4-YL)-BUT-2-ENAMIDE]
IC50 (A431 cells): 62 nM | IC50 (NCI-N87 cells): 20 nM

C#Cc1cccc(Nc2c(C#N)cnc3cc(OC4CCOC4)c(NC(=O)/C=C/CN(C)C)cc23)c1 (stereo not drawn) [Example 5, (E)-N-(3-CYANO-4-(3-ETHYNYLPHENYLAMINO)-7-(TETRAHYDROFURAN-3-YL-OXY)QUINOLIN-6-YL)-4-(DIMETHYLAMINO)-BUT-2-ENAMIDE]
IC50 (A431 cells): 24 nM | Growth Inhibition Ratio (%) (A431 cells): 85% | IC50 (A549 cells): 1300 nM | IC50 (NCI-N87 cells): 22 nM

CN(C)C/C=C/C(=O)Nc1cc2c(Nc3ccc(OCc4cccc(F)c4)c(Cl)c3)c(C#N)cnc2cc1OC1CCOC1 (stereo not drawn) [Example 9, (E)-N-(4-(4-(3-FLUOROBENZYLOXY)-3-CHLOROPHENYLAMINO)-3-CYANO-7-(TETRAHYDROFURAN-3-YL-OXY)QUINOLIN-6-YL)-4-(DIMETHYLAMINO)-BUT-2-ENAMIDE]
IC50 (A431 cells): 135 nM | Growth Inhibition Ratio (%) (A431 cells): 90% | IC50 (A549 cells): 1700 nM | IC50 (NCI-N87 cells): 8.6 nM

C#Cc1cccc(Nc2c(C#N)cnc3cc(O[C@@H]4CCOC4)c(NC(=O)/C=C/CN(C)C)cc23)c1 [Example 141, (R,E)-N-(3-CYANO-4-(3-ETHYNYLPHENYLAMINO)-7-(TETRAHYDROFURAN-3-YL-OXY)QUINOLIN-6-YL)-4-(DIMETHYLAMINO)-BUT-2-ENAMIDE]
inhibition at 1 µM (A431 cells): 80% | IC50 (A431 cells): 50 nM | IC50 (A549 cells): 800 nM | IC50 (NCI-N87 cells): 32 nM
